Experimental data from patent publication US6569461B1, “Dihydroxy open-acid and salts of HMG-CoA reductase inhibitors” (Merck & Co., Inc., priority 1999, dated 2003).

Tests used:
[1] = Plasma total and active HMG-CoA reductase inhibitory activity (enzymatic assay) in open, randomized, four-period crossover study with or without itraconazole; conditions: human, in vivo
Description: (§1) Intraduodenal administration was accomplished via a nasoduodenal tube placed under fluoroscopic guidance by an experienced gastroenterologist just prior to dosing and removed following the 1-hr postdose measurements.
(§2) All calculations were based on designated sampling times or actual sampling times when they differed from the designated times by more than 10 minutes.

[2] = human, in vivo
Description: as §1, §2

AUC, Active Inhibitors [1]: 54.1 ± 28.5 ng eq·hr/mL
Cmax, Active Inhibitors [1]: 5.7 ± 3.0 ng eq/mL
change by itraconazole pretreatment in AUC and Cmax of HMG-CoA reductase inhibitory activity (total or active) ([1]; male): 1.3-1.5 fold
effect of itraconazole on apparent t1/2 values [2]: essentially unchanged
effect of itraconazole measured as the unchanged drug ([2]; male): 1.5 fold
Structure (SMILES): CCC(C)(C)C(=O)O[C@H]1C[C@@H](C)C=C2C=C[C@H](C)[C@H](CC[C@@H](O)C[C@@H](O)CC(=O)O)[C@H]21 [SVA, dihydroxy open acid simvastatin]
